According to patent US20150328322A1, “DRUG DELIVERY VEHICLES” (priority 2012, published 2015):

Key:
[1] = molecular target: T1, MLD capsid II (Escherichia phage T7, UniProt P03728+P19726); test: Diffusion-driven permeation of dyes into internal cavity of MLD capsid II; assay type: physicochemical; conditions: entry through the gp8 portal
T1 construct: These latter capsid shells are produced during DNA packaging
From the text: MLD Capsid II. […] Thus, bis-ANS, ethidium, and presumably other similarly sized compounds enter MLD capsid II through the gp8 portal (see FIG. 1a).

[2] = molecular target: T1, MLD capsid II; test: AUC-BD in a Nycodenz density gradient after pre-centrifugation incubation; assay type: physicochemical
Method: By use of recent technical advances, both densities and their pressure dependence have been explored by use of analytical buoyant density equilibrium sedimentation (AUC-BD) performed with a Nycodenz density gradient and a fluorescence detector. The data were analyzed with the UltraScan-III software (Demeler et al., (2012) UltraScan-III, a comprehensive analysis software for analytical ultracentrifugation experiments. The University of Texas Health Science Center at San Antonio, Dept. of Biochemistry). […] The sources of the peak sharpness are small diffusion coefficient and uniform density of phage and phage capsids. […] Fluorescence detection provides picomolar sensitivity and several orders of magnitude of dynamic range. AUC-BD is also efficient in that (1) no gradient fractionation and analysis of separate fractions is needed, (2) sample concentrations in the picomolar range are used, over 2 orders of magnitude less than what is needed for other procedures of detection, (3) 14 samples can be simultaneously run and (4) pressure and temperature dependences are determined with one set of samples by progressively changing the speed and temperature of centrifugation.
The details of the AUC-BD are the following. […] If the particle is uniform in density and its diffusion is low, then a sharp peak of fluorescence will form. […]

[3] = molecular target: T2, MHD capsid II (Escherichia phage T7, UniProt P19726); test: Fluorescence (I) vs. time binding of bis-ANS to connector-free capsid; assay type: physicochemical; conditions: capsid II particle without connector
T2 construct: These latter capsid shells are produced during DNA packaging; made in house; host or cells: phage-infected E. coli (inferred)
From the text: For measuring the rate of loading of a compound in MLD capsid II, an alternative to AUC-BD is usually needed for reasons of efficiency of time and cost. Total fluorescence (/) has been used to determine the rate of loading for bis-ANS, because bis-ANS undergoes fluorescence enhancement when it binds to hydrophobic areas of proteins, including several internal T7 proteins (gps8, gps15, gps16)—the T7 proteins bound were identified by ultraviolet light-induced, covalent cross-linking to bis-ANS after binding. The value of I vs. time at 25° C. is plotted in FIG. 5 (adapted from Khan et al., Biophys. J. 1992, 63:1286-1292), during incubation of bis-ANS with T7 MLD capsid II and also the mature phage T7 and a T7 deletion mutant, C5-LG3. Binding to the exterior of the capsid was so rapid that it was complete before the first measurement. […] Thus, the loading rate is simply observed by measuring I vs. time and subtracting the initial signal. […] MLD capsid II-bound bis-ANS fluorescence is quenched by incubation with ethidium cation.

[4] = molecular target: T3, T7 MLD capsid II (Escherichia phage T7, UniProt P03728+P19726); conditions: 25° C.; FIG. 5 adapted from Khan et al. 1992; cited from earlier work
T3 construct: These latter capsid shells are produced during DNA packaging

[5] = molecular target: T1, MLD capsid II; test: Buoyant density after incubation with sodium iothalamate; assay type: physicochemical; conditions: 25° C.; loads, but very slowly
From the text: Assays for Loading. To assay for diffusion-driven loading of a compound in the cavity of MLD capsid II, the most direct method is to perform buoyant density equilibrium centrifugation in a non-ionic density gradient of either Metrizamide (mw=789) or the closely related compound, Nycodenz (mw=821). If a compound enters MLD capsid II, the density changes after loading. Most dyes and drugs would, if loaded, cause the density of MLD capsid II to increase. The reason is that most dyes and drugs are denser than water and a loaded dye or drug molecule replaces internal MLD capsid II water. The exceptionally high hydration of MLD capsid II causes the density of MLD capsid II to be extremely low, typically between 1.08 and 1.12 g/ml, decreasing with increasing centrifugation speed, i.e., with increasing pressure (unpublished observations of the laboratories of Borries Demeler and Philip Serwer).
As the temperature decreases, the loading rate is expected to decrease, eventually to zero at a critical temperature. The critical temperature is expected to decrease as the molecular weight of the compound loaded decreases. The borderline for loading MLD capsid II at 25° C. is somewhat higher than 612, based on the fact that iothalamate anion (mw =612) loads, but very slowly (>19 hours), as determined by the buoyant density after incubation with sodium iothalamate. […]

In the case of `CC(=O)Nc1c(I)c(C(=O)N[C@H]2C(O)O[C@H](CO)[C@@H](O)[C@@H]2O)c(I)c(N(C)C(C)=O)c1I` (some centres unmarked) [Metrizamide], the “diffusion into the internal cavity of MLD capsid II” value (“diffusion into the internal cavity” for short) [1] is reported as “never been observed to detectably diffuse into MLD capsid II”.
With `CC(=O)N(CC(O)CO)c1c(I)c(C(=O)NCC(O)CO)c(I)c(C(=O)NCC(O)CO)c1I` (centres unmarked) [Nycodenz] the “entry into MLD capsid II” value ([2]; pre-centrifugation incubation at 61° C. and 68° C., conversion to high-density particle, shell intact) was “does enter” and the “entry into MLD capsid II” value ([2]; pre-centrifugation incubation at temperatures as high as 54° C.) was “does not enter MLD capsid II”.
In the case of `O=S(=O)(O)c1cccc2c(-c3ccc(Nc4ccccc4)c4c(S(=O)(=O)O)cccc34)ccc(Nc3ccccc3)c12` [bis-ANS, 4,4′-dianilino-1,1′-binaphthyl-5,5′-disulfonic acid], the bis-ANS binding kinetics [3] is listed as “Only rapid (effectively instantaneous) binding”, the “time of bis-ANS binding to the interior (loading)” value [4] is listed as “several hours” and the “diffusion into the internal cavity” value [1] is listed as “diffuse into the internal cavity of MLD capsid II (over hours)”.
With `CC[n+]1c(-c2ccccc2)c2cc(N)ccc2c2ccc(N)cc21` [ethidium] the “diffusion into the internal cavity” value [1] was “diffuse into the internal cavity of MLD capsid II (over hours)”.
`CNC(=O)c1c(I)c(NC(C)=O)c(I)c(C(=O)O)c1I` [iothalamate] showed a loading time [5] greater than 19 h.
